According to patent US4025508A, “6-(Trifluoromethyl)-benzothiadiazines” (Serdex - Societe d'Etudes, de Recherches, de Diffusion et …, priority 1973, dated 1977):

Columns and labels:
glycemia [1] = test: Hyperglycemia-producing activity, tests in rats (glycemia); format: in vivo, rat (adult white rats)
Procedure: The following test methods were used to determine the hyperglycemia-producing activity:
The experiments were conducted in adult white rats weighing 200 g+ 10 g.
The products were administered as a suspension in gummy julep, by stomach tube, at dosages of 10, 20 and 100 mg/kg, p.o.
At each dosage level, and in each case, lots of 10 test animals (5 male and 5 female) and of 10 reference animals (5 male and 5 female, administered only the gummy Julep) were used.
Blood samples were taken by cardiac puncture, at times 15, 60 minutes and 2, 4 and 24 hours after administration of the products, and the glycemia was determined.

glycemia [2] = test: Hyperglycemia-producing activity, tests in dogs (glycemia); format: in vivo, dog; conditions: p.o.
[3] = system: cardiovascular parameters; test: Cardiovascular parameters (blood pressures, cardiac rhythm) in anesthetized dogs; format: in vivo, dog; conditions: 100 mg/kg, p.o.
[4] = Acute toxicity (LD50 /24 hours); conditions: in vivo, po

## O=S1(=O)NC=Nc2cc(C(F)(F)F)c(F)cc21 [Example 1, 6-trifluoromethyl-7-fluoro-2H-1,2,4-benzothiadiazine-1,1-dioxide]
Glycemia [1]; 100 mg/kg p.o., twenty-four hours after administration, from 0.839± 0.042 g/l
  glycemia after administration: 1.212 ± 0.041 g/L
Glycemia [1]; 10 or 20 mg/kg, p.o.
  action on the glycemia: no significant action
Glycemia [2]; 100 mg/kg
  increase of the glycemia: about 25%
Glycemia [2]; 10 or 20 mg/kg
  action on the glycemia: no significant action
[3]
  action on the cardiac rhythm: nor on the cardiac rhythm
  action on the diastolic pressure: no significant action
  action on the differential pressure: no significant action
  action on the mean pressure: no significant action
  action on the systolic pressure: no significant action
[4]
  LD50 at 24 h: 3230 mg/kg
